Assay results reported in patent publication US20240043435A1, “TYK-2 INHIBITOR” (BEIGENE, LTD., priority 2020, published 2024).
pIC50: −log10 of the molar value.

Assays:
[1] = system: pSTAT5/GM-CSF; test: pSTAT5/GM-CSF cellular assay (JAK2 selectivity); type: cell-based; conditions: for Selectivity fold (TYK2/JAK2): pSTAT5/GM-CSF IC50 over pSTAT4/IL-12 IC50
[2] = target: T1, TYK2-JH2 (aa 575-869, in-house) protein (Homo sapiens, UniProt P29597); test: TYK2-JH2 biochemical assay (HTRF probe displacement); type: binding; conditions: Biochemical assay; read-out: TYK2-JH2 IC50
T1 construct: TYK2-JH2 (aa 575-869, in-house) protein; made in house
In short: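 Recombinant TYK2-JH2 (0.2 nM) was pre-incubated 0.5 h at room temperature with compounds (10 doses, 5-fold dilution; 500× DMSO stocks from 500 uM) in 20 mM HEPES pH 7.5, 10 mM MgCl2, 0.005% BSA, 2 mM DTT, 0.015% Brij-35. Probe displacement was read by HTRF (ex337, em620/665 nm); IC50 from four-parameter logistic fit.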

[3] = system: JAK2, TYK2/p-STAT4 (Tyr693) activated by IL-12 in NK-92 cell line; test: IL-12-JAK2, TYK2/p-STAT4 (Tyr693) inhibition IC50 cellular assay; type: cell-based; conditions: for pIC50: NK92, Cellular assay, read-out: pSTAT4/IL-12 IC50; for Selectivity fold (TYK2/JAK2): Cellular assay, pSTAT5/GM-CSF IC50 vs pSTAT4/IL-12 IC50
In short: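 NK-92 cells were starved overnight without IL-2 and preincubated 1 h at 37° C with compound (8 doses, 10000–0.61 nM, 4-fold, 0.2% DMSO). They were then stimulated with IL-12 (40 ng/ml final) for 30 min. Lysate p-STAT4 (Tyr693) was read by AlphaLISA SureFire; IC50 from four-parameter logistic fit.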

T1 sequence (P29597 575-869): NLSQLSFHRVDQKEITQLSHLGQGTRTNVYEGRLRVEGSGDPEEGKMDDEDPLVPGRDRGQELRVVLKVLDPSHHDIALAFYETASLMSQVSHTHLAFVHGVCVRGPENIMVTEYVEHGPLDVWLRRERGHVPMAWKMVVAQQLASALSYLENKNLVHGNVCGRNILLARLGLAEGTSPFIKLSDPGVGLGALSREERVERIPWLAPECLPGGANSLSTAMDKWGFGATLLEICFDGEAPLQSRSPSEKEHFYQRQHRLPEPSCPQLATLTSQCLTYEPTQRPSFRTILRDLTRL

| Structure (SMILES) | pIC50 [1] | Selectivity fold (TYK2/JAK2) [1] | pIC50 [2] | pIC50 [3] | Selectivity fold (TYK2/JAK2) [3] |
| --- | --- | --- | --- | --- | --- |
| CCn1ccc(-c2cnc(NC(C)=O)cc2Nc2cc(OCCO)cc(S(C)(=O)=O)c2)n1 [Example M15, N-(5-(1-ethyl-1H-pyrazol-3-yl)-4-((3-(2-hydroxyethoxy)-5-(methylsulfonyl)phenyl)amino)pyridin-2-yl)acetamide] | < 5.00 | >977 fold | 10.32 | 7.99 |  |
| CC(=O)Nc1cc(Nc2cccc(S(C)(=O)=O)c2)c(-c2ccc(N3C[C@@H](C)O[C@@H](C)C3)cn2)cn1 [Example C3, N-(5-((cis)-2,6-dimethylmorpholino)-4′-((3-(methylsulfonyl)phenyl)amino)-[2,3′-bipyridin]-6′-yl)acetamide] | < 5.00 |  | 10.49 | 8.24 | >1721 fold |
| CC(=O)Nc1cc(Nc2cc(N3CCC(O)C3)cc(S(C)(=O)=O)c2)c(-c2ccc(C(C)(C)O)cn2)cn1 (centres unmarked) [Example H17, N-(5-(2-hydroxypropan-2-yl)-4′-((3-(3-hydroxypyrrolidin-1-yl)-5-(methylsulfonyl)phenyl)amino)-[2,3′-bipyridin]-6′-yl)acetamide] | < 5.00 |  | 10.47 | 7.17 | >149 fold |
| CC(=O)Nc1cc(Nc2cc(C)cc(S(C)(=O)=O)n2)c(-c2ccc(N3C[C@@H](C)O[C@@H](C)C3)cn2)cn1 [Example C1, N-(5-(cis-2,6-dimethylmorpholino)-4′-((4-methyl-6-(methylsulfonyl)pyridin-2-yl)amino)-[2,3′-bipyridin]-6′-yl)acetamide] | 6.25 |  | 10.57 | 9.06 | 639 fold |
| COCCOc1cc(Nc2cc(NC(C)=O)ncc2-c2cc(N3CCOCC3)n(C)n2)nc(S(C)(=O)=O)c1 [Example O2, N-(4-((4-(2-methoxyethoxy)-6-(methylsulfonyl)pyridin-2-yl)amino)-5-(1-methyl-5-morpholino-1H-pyrazol-3-yl)pyridin-2-yl)acetamide] | 5.15 | 6265 fold | 10.80 | 8.95 |  |
| CCS(=O)(=O)c1cccc(Nc2cc(NC(C)=O)ncc2-c2ccn(C)n2)n1 [Example J5, N-(4-((6-(ethylsulfonyl)pyridin-2-yl)amino)-5-(1-methyl-1H-pyrazol-3-yl)pyridin-2-yl)acetamide] | < 5.00 | >4878 fold | 10.66 | 8.69 |  |
| CC(=O)Nc1cc(Nc2cc(C(F)F)cc(S(C)(=O)=O)c2)c(-c2ccn(C)n2)cn1 [Example J32, N-(4-((3-(difluoromethyl)-5-(methylsulfonyl)phenyl)amino)-5-(1-methyl-1H-pyrazol-3-yl)pyridin-2-yl)acetamide] | < 5.00 | >1137 fold | 10.10 | 8.06 |  |
| CC(=O)Nc1cc(Nc2cccc(S(=O)(=O)C(C)C)n2)c(-c2ccn(C)n2)cn1 [Example J29, N-(4-((6-(isopropylsulfonyl)pyri-din-2-yl)amino)-5-(1-methyl-1H-pyrazol-3-yl)pyridin-2-yl)acetamide] | < 5.00 | >805 fold | 10.35 | 7.91 |  |
| [2H]C([2H])([2H])Oc1cc(Nc2cc(NC(C)=O)ncc2-c2ccc(N3C[C@@H](C)O[C@@H](C)C3)cn2)nc(S(C)(=O)=O)c1 [Example C17, N-(5-((cis)-2,6-dimethylmorpholino)-4′-((4-(methoxy-d3)-6-(methylsulfonyl)pyridin-2-yl)amino)-[2,3′-bipyridin]-6′-yl)acetamide] | < 5.00 |  | 10.66 | 9.22 | >16528 fold |
| COc1cc(Nc2cc(NC(C)=O)ncc2-c2cc(C)n(C)n2)nc(S(C)(=O)=O)c1 [Example N4, N-(5-(1,5-dimethyl-1H-pyrazol-3-yl)-4-((4-methoxy-6-(methylsulfonyl)pyridin- -2-yl)amino)pyridin-2-yl)acetamide] | < 5.00 | >72992 fold | 10.54 | 9.86 |  |
| CC(=O)Nc1cc(Nc2cncc(S(C)(=O)=O)n2)c(-c2ccc3c(n2)OC(C)(C)CO3)cn1 [Example Q28, N-(5-(3,3-dimethyl-2,3-dihydro-[1,4]dioxino[2,3-b]pyridine-6-yl)-4-((6-(methylsulfonyl)pyrazin-2-yl)amino)pyridine-2-yl)acetamide] | < 5.00 | >30395 fold | 10.59 | 9.48 |  |
| CCn1ccc(-c2cnc(NC(C)=O)cc2Nc2cc(OC3CCCC3)cc(S(C)(=O)=O)n2)n1 [Example M17, N-(4-((4-(cyclopentyloxy)-6-(methylsulfonyl)pyridin-2-yl)amino)-5-(1-ethyl-1H-pyrazol-3-yl)pyridin-2-yl)acetamide] | < 5.00 | >9174 fold | 10.39 | 8.96 |  |
| CC(=O)Nc1cc(Nc2cc(OCC(C)O)cc(S(C)(=O)=O)n2)c(-c2cc(N3CCOCC3)n(C)n2)cn1 (centres unmarked) [Example O3, N-(4-((4-(2-hydroxypropoxy)-6-(methylsulfonyl)pyridin-2-yl)amino)-5-(1-methyl-5-morpholino-1H-pyrazol-3-yl)pyridin-2-yl)acetamide] | 5.08 | 2109 fold | 10.51 | 8.16 |  |
| CC(=O)Nc1cc(Nc2cc(OCCO)cc(S(C)(=O)=O)c2)c(-c2ccn(C)n2)cn1 [Example J56, N-(4-((3-(2-hydroxyethoxy)-5-(methylsulfonyl)phenyl)amino)-5-(1-methyl-1H-pyrazol-3-yl)pyridin-2-yl)acetamide] | < 5.00 | >332 fold | 10.36 | 7.52 |  |
| CO[C@H]1CCCN(c2cc(Nc3cc(NC(C)=O)ncc3-c3ccc4c(n3)OCC(C)(C)O4)nc(S(C)(=O)=O)c2)C1 [Example Q65, (S)-N-(5-(2,2-dimethyl-2,3-dihydro-[1,4]dioxino[2,3-b]pyridin-6-yl)-4-((4-(3-methoxypiperidin-1-yl)-6-(methylsulfonyl)pyridin-2-yl)amino)pyridin-2-yl)acetamide] | 5.78 | 2397 fold | 10.54 | 9.16 |  |
| COc1cc(Nc2cc(NC(C)=O)ncc2-c2ccn(C)n2)nc(S(C)(=O)=O)c1 [Example J21, N-(4-((4-methoxy-6-(methylsulfonyl)pyridin-2-yl)amino)-5-(1-methyl-1H-pyrazol-3-yl)pyridin-2-yl)acetamide] | < 5.00 | >13888 fold | 10.77 | 9.14 |  |
| CC(=O)Nc1cc(Nc2cc(C3CCOCC3)cc(S(C)(=O)=O)n2)c(-c2ccc(N3C[C@@H](C)O[C@@H](C)C3)cn2)cn1 [Example C21, N-(5-(cis-2,6-dimethylmorpholino)-4′-((6-(methylsulfonyl)-4-(tetrahydro-2H-pyran-4-yl)pyridin-2-yl)amino)-[2,3′-bipyridin]-6′-yl)acetamide] | < 5.00 |  | 10.62 | 9.00 | >10050 fold |
